Key:
[1] = target: T1, human mu opioid receptors (Homo sapiens, UniProt P35372); assay: radioligand binding assay, cloned human mu opioid receptor, [3H]-DAMGO; details: ratio of Ki at human mu ([3H]-DAMGO 0.5 nM) to Ki at human delta
T1 construct: expressed in transfected cells; membranes
Protocol: (§1) The activity of the compounds of the present invention as selective delta ligands is determined in radioligand binding assays using cloned human delta, mu and kappa opioid receptors stably expressed in cell lines as described below.
(§2) CHO cells were subjected to stable transfection with cDNA encoding the human delta and mu opioid receptors. Clones were grown in suspension culture in serum free media. Selection was performed by growth in the absence of nucleotides.
(§3) Membranes were prepared as previously described (J. Med. Chem. 1997, 40 3192). The binding of the preferential delta ligand [^3H]-[D-Ala^2,D-Leu^5]-enkephalin (DADLE) was evaluated at its KD concentration (0.7 nM). The binding of the mu ligand [^3H]-DAMGO (Eur. J. Pharmacol., 1989, 166, 213) and of the kappa ligand [^3H]-U69593 (Excerpta Medica, 1990, 211) were carried out at 0.5 nM. Non specific binding was determined in the presence of 10 uM of naloxone. Binding data were expressed as percentage of inhibition and fitted the following equation: f(x)=100·X/(IC50+X) where X is the cold drug concentration value. The IC50 values obtained were used to calculate the inhibitory constants (Ki) according to the Cheng and Prusoff relation (Biochem. Pharmacol., 1973, 22, 3099).

[2] = target: T2, human delta opioid receptors (Homo sapiens, UniProt P41143); assay: radioligand binding assay, cloned human delta opioid receptor, [3H]-DADLE
T2 construct: expressed in transfected cells; membranes
Protocol: as §1, §2, §3

T2 sequence (P41143 whole entry): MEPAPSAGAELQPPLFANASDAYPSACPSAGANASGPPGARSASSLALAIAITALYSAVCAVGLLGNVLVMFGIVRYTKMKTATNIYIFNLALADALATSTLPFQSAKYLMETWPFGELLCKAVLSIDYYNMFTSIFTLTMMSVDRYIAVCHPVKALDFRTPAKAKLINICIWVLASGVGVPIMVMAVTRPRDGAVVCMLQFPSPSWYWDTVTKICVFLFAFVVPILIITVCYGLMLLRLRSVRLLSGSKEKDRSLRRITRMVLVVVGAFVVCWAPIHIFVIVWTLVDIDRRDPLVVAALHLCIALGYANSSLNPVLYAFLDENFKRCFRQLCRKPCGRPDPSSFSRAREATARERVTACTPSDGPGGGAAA
T1 sequence (P35372 whole entry): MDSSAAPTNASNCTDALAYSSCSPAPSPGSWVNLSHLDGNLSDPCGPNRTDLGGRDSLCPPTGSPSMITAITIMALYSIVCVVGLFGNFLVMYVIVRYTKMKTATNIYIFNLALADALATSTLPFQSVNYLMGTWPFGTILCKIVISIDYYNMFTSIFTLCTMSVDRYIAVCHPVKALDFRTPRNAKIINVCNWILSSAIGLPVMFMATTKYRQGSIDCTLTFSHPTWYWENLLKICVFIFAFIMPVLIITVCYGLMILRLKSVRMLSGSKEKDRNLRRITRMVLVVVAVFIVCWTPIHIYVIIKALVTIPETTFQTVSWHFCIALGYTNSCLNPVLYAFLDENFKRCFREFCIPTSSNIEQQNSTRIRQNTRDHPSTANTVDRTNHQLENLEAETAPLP

COc1ccc2c3c1O[C@H]1c4[nH]c(C(=O)N5CCN(c6ccc(C)cc6C)CC5)c(C)c4C[C@H]4[C@@H](C2)N(C)CC[C@]314 [Example 6]
Ki mu/Ki delta [1]: 437
Ki [2]: 1 nM

COc1ccc(N2CCN(C(=O)c3[nH]c4c(c3C)C[C@H]3[C@H]5Cc6ccc(OC)c7c6[C@@]3(CCN5C)[C@H]4O7)CC2)c(OC)c1 [Example 23]
Ki mu/Ki delta [1]: 1010
Ki [2]: 0.6 nM

— US20040067959A1, “Morphinoid derivatives as delta-opioid agonists and antagonists” (priority 2000, published 2004)
